Laboratory results from patent US5191079A, “Quinolinecarboxylic acid derivatives” (priority 1990, dated 1993).
In brackets after ≈: the same amount, converted by molar mass. Where two headings read alike, the source gives them in different places.

What was measured:
Format in all cases: cell-based
[1] = system: Acinetobacter calcoaceticus Ac 54; test: MIC, Experiment 1; conditions: AC54, A. calcoaceticus Ac 54, Gram -, read-out: Min. inhib. concentr. (MIC)
Procedure, shortened: (§1)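 MIC was determined by the Japan Society of Chemotherapy agar dilution method, working from 1000 μg/ml standard solutions (DMSO or water stocks). S. pneumoniae was precultured in brain heart infusion broth and tested on heart infusion agar with 5% defibrinated horse blood. Other strains used sensitivity test broth and sensitivity test agar.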

[2] = system: Bacillus subtilis ATCC 6633; test: MIC, Experiment 1; conditions: ATCC6633, B. subtilis ATCC 6633, Gram +, read-out: Min. inhib. concentr. (MIC)
Procedure, shortened: as §1

Enterobacter cloacae 963 = test: MIC, Experiment 1; conditions: E. cloacae 963, Gram -, read-out: Min. inhib. concentr. (MIC)
Procedure, shortened: as §1

[3] = system: Klebsiella pneumoniae PCI-602; test: MIC, Experiment 1; conditions: PCI602, K. pneumoniae PCI-602, Gram -, read-out: Min. inhib. concentr. (MIC)
Procedure, shortened: as §1

[4] = system: Micrococcus luteus ATCC 9341; test: MIC, Experiment 1; conditions: ATCC9341, M. luteus ATCC 9341, Gram +, read-out: Min. inhib. concentr. (MIC)
Procedure, shortened: as §1

[5] = system: Proteus mirabilis IFO 3849; test: MIC, Experiment 1; conditions: IFO3849, P. mirabilis IFO 3849, Gram -, read-out: Min. inhib. concentr. (MIC)
Procedure, shortened: as §1

[6] = system: Pseudomonas aeruginosa NCTC 10490; test: MIC, Experiment 1; conditions: NCTC10490, P. aeruginosa NCTC 10490, Gram -, read-out: Min. inhib. concentr. (MIC)
Procedure, shortened: as §1

[7] = system: Staphylococcus aureus ATCC 9144; test: MIC, Experiment 1; conditions: ATCC9144, S. aureus ATCC 9144, Gram +, read-out: Min. inhib. concentr. (MIC)
Procedure, shortened: (§2)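 Standard solutions of 1000 μg/ml were prepared for each compound. Inhibition was then scored under Japan Society of Chemotherapy conditions. S. pneumoniae used brain heart infusion preculture and horse-blood (5%) heart infusion agar. The remaining species used sensitivity test broth and agar.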

[8] = system: Staphylococcus aureus Cowan I (IID 975); test: MIC, Experiment 1; conditions: IID975, S. aureus Cowan I (IID 975), Gram +, read-out: Min. inhib. concentr. (MIC)
Procedure, shortened: as §2

[9] = system: Staphylococcus aureus FDA 209P JC-1; test: MIC, Experiment 1; conditions: FDA209P, S. aureus FDA 209P JC-1, Gram +, read-out: Min. inhib. concentr. (MIC)
Procedure, shortened: as §2

[10] = system: Staphylococcus aureus FDA 243; test: MIC, Experiment 1; conditions: FDA243, S. aureus FDA 243, Gram +, read-out: Min. inhib. concentr. (MIC)
Procedure, shortened: as §2

[11] = system: Staphylococcus aureus MS-353; test: MIC, Experiment 1; conditions: MS353, S. aureus MS-353, Gram +, read-out: Min. inhib. concentr. (MIC)
Procedure, shortened: as §2

[12] = system: Staphylococcus aureus Terajima (IID 670); test: MIC, Experiment 1; conditions: IID670, S. aureus Terajima (IID 670), Gram +, read-out: Min. inhib. concentr. (MIC)
Procedure, shortened: as §2

[13] = system: Streptococcus pneumoniae IID 552; test: MIC, Experiment 1; conditions: IID552, S. pneumoniae IID 552, Gram +, agar with 5% defibrinated horse blood, read-out: Min. inhib. concentr. (MIC)
Procedure, shortened: as §2

[14] = system: Streptococcus pneumoniae IID 554; test: MIC, Experiment 1; conditions: IID554, S. pneumoniae IID 554, Gram +, agar with 5% defibrinated horse blood, read-out: Min. inhib. concentr. (MIC)
Procedure, shortened: as §2

[15] = system: Streptococcus pyogenes Cook; test: MIC, Experiment 1; conditions: S. pyogenes Cook, Gram +, agar with 5% defibrinated horse blood, read-out: Min. inhib. concentr. (MIC)
Procedure, shortened: (§3)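 Minimum inhibitory concentrations come from the Japan Society of Chemotherapy procedure. For streptococci, plates were heart infusion agar with 5% defibrinated horse blood after brain heart infusion broth preculture. Non-streptococcal strains were grown in sensitivity test broth and plated on sensitivity test agar.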

[16] = system: Streptococcus pyogenes Su; test: MIC, Experiment 1; conditions: S. pyogenes Su, Gram +, agar with 5% defibrinated horse blood, read-out: Min. inhib. concentr. (MIC)
Procedure, shortened: as §3

[17] = system: Streptococcus pyogenes Sv; test: MIC, Experiment 1; conditions: S. pyogenes Sv, Gram +, agar with 5% defibrinated horse blood, read-out: Min. inhib. concentr. (MIC)
Procedure, shortened: as §3

[18] = system: clinically isolated Enterococcus faecalis; test: In vitro antibacterial activity against clinical isolates, Experiment 2; conditions: 25 clinical strains E. faecalis; for MIC50: 50% of strains, read-out: MIC50; for MIC90: 90% of strains, read-out: MIC90
Procedure, shortened: (§4)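 Clinical isolates collected Nov. 1988 to Jun. 1989 were precultured in sensitivity test broth. MIC was determined on sensitivity test agar. Compound standard solution was 1000 μg/ml (stock) in sterilized distilled water.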

[19] = system: clinically isolated Enterococcus faecium; test: as above
Procedure, shortened: as §4

[20] = system: clinically isolated Staphylococcus aureus; test: as above; conditions: for MIC50: 50% of strains, read-out: MIC50
Procedure, shortened: as §4

[21] = system: clinically isolated Staphylococcus epidermidis; test: as above; conditions: Staphylococcus epidermidis; for MIC90: 90% of strains, read-out: MIC90
Procedure, shortened: as §4

[22] = 25 clinical strains E. faecium, 90% of strains, read-out: MIC90
[23] = 25 clinical strains S. aureus incl. 16 methicillin resistant
[24] = 25 clinical strains S. epidermidis

With `CC1CN(c2c(F)cc3c(=O)c(C(=O)O)c4scc5n4c3c2N(C)C5)CCO1` (stereo not drawn) [Compound (A), 9,1-(Methylimino)methano-7-fluoro-8-(2-methylmorpholino)-5-oxo-5H-thiazolo[3,2-a]quinoline-4-carboxylic acid] the MIC [1] was no more than 0.006 µg/mL, the MIC [2] was no more than 0.006 µg/mL and the MIC (Enterobacter cloacae 963) was 0.2 µg/mL (≈ 0.496 µM). The MIC [3] was no more than 0.006 µg/mL, the MIC [4] was 0.1 µg/mL (≈ 0.248 µM) and the MIC [5] was 0.2 µg/mL (≈ 0.496 µM). For the same molecule, the MIC [6] was 0.39 µg/mL (≈ 0.967 µM), the MIC [7] was 0.013 µg/mL (≈ 0.0322 µM) and the MIC [8] was 0.013 µg/mL (≈ 0.0322 µM). It also gave an MIC [9] of 0.013 µg/mL (≈ 0.0322 µM), an MIC [10] of no more than 0.006 µg/mL and an MIC [11] of 0.013 µg/mL (≈ 0.0322 µM). For the same molecule, the MIC [12] was 0.013 µg/mL (≈ 0.0322 µM), the MIC [13] was 0.013 µg/mL (≈ 0.0322 µM) and the MIC [14] was 0.05 µg/mL (≈ 0.124 µM). It also gave an MIC [15] of 0.025 µg/mL (≈ 0.062 µM), an MIC [16] of 0.025 µg/mL (≈ 0.062 µM) and an MIC [17] of 0.025 µg/mL (≈ 0.062 µM). The MIC [18] was 0.025 to 3.13 µg/mL (≈ 0.062 to 7.76 µM), the MIC50 [18] was 0.1 µg/mL (≈ 0.248 µM) and the MIC90 [18] was 3.13 µg/mL (≈ 7.76 µM). For the same molecule, the MIC ([19]; 25 clinical strains E. faecium) was 0.05 to 6.25 µg/mL (≈ 0.124 to 15.5 µM), the MIC50 ([19]; 25 clinical strains E. faecium, 50% of strains, read-out: MIC50) was 0.78 µg/mL (≈ 1.93 µM) and the MIC90 [19, 22] was 3.13 µg/mL (≈ 7.76 µM). The MIC [20, 23] was 0.006 to 0.2 µg/mL (≈ 0.0149 to 0.496 µM), the MIC50 [20, 23] was no more than 0.006 µg/mL and the MIC90 ([20]; 25 clinical strains S. aureus incl. 16 methicillin resistant, 90% of strains, read-out: MIC90) was 0.2 µg/mL (≈ 0.496 µM). For the same molecule, the MIC [21, 24] was 0.006 to 0.39 µg/mL (≈ 0.0149 to 0.967 µM), the MIC50 ([21]; 25 clinical strains S. epidermidis, 50% of strains, read-out: MIC50) was 0.013 µg/mL (≈ 0.0322 µM) and the MIC90 [21, 24] was 0.2 µg/mL (≈ 0.496 µM).

`CN1Cc2csc3c(C(=O)O)c(=O)c4cc(F)c(N5CCO[C@H](CO)C5)c1c4n23` [Compound (M), 9,1-(Methylimino)methano-7-fluoro-8-[ (2S)-2-hydroxymethylmorpholino]-5-oxo-5H-thiazolo[3,2-a]quinoline-4-carboxylic acid] was tested, and the MIC [1] was no more than 0.006 µg/mL, the MIC [2] was no more than 0.006 µg/mL and the MIC (Enterobacter cloacae 963) was 0.2 µg/mL (≈ 0.477 µM). For the same molecule, the MIC [3] was no more than 0.006 µg/mL, the MIC [4] was 0.2 µg/mL (≈ 0.477 µM) and the MIC [5] was 0.39 µg/mL (≈ 0.93 µM). It also gave an MIC [6] of 0.39 µg/mL (≈ 0.93 µM), an MIC [7] of no more than 0.006 µg/mL and an MIC [8] of 0.013 µg/mL (≈ 0.031 µM). The MIC [9] was 0.013 µg/mL (≈ 0.031 µM), the MIC [10] was no more than 0.006 µg/mL and the MIC [11] was 0.025 µg/mL (≈ 0.0596 µM). The MIC [12] was 0.025 µg/mL (≈ 0.0596 µM), the MIC [13] was 0.05 µg/mL (≈ 0.119 µM) and the MIC [14] was 0.05 µg/mL (≈ 0.119 µM). For the same molecule, the MIC [15] was 0.05 µg/mL (≈ 0.119 µM), the MIC [16] was 0.025 µg/mL (≈ 0.0596 µM) and the MIC [17] was 0.05 µg/mL (≈ 0.119 µM). The MIC [18] was 0.05 to 3.13 µg/mL (≈ 0.119 to 7.46 µM), the MIC50 [18] was 0.2 µg/mL (≈ 0.477 µM) and the MIC90 [18] was 3.13 µg/mL (≈ 7.46 µM). For the same molecule, the MIC50 [19] was 1.56 µg/mL (≈ 3.72 µM), the MIC ([19]; 25 clinical strains E. faecium) was 0.1 to 25 µg/mL (≈ 0.238 to 59.6 µM) and the MIC90 [19, 22] was 3.13 µg/mL (≈ 7.46 µM). The MIC90 [20] was 0.78 µg/mL (≈ 1.86 µM), the MIC [20, 23] was 0.006 to 0.78 µg/mL (≈ 0.0143 to 1.86 µM) and the MIC50 [20, 23] was 0.013 µg/mL (≈ 0.031 µM). The MIC50 [21] was 0.025 µg/mL (≈ 0.0596 µM), the MIC [21, 24] was 0.006 to 0.78 µg/mL (≈ 0.0143 to 1.86 µM) and the MIC90 [21, 24] was 0.39 µg/mL (≈ 0.93 µM).

In the case of `CN1Cc2csc3c(C(=O)O)c(=O)c4cc(F)c(N5CCOC(CO)C5)c1c4n23` (stereo not drawn) [Compound (B), 9,1-(Methylimino)methano-7-fluoro-8-(2-hydroxymethylmorpholino)-5-oxo-5H-thiazolo[3,2-a]quinoline-4-carboxylic acid], the MIC [1] is reported as no more than 0.006 µg/mL, the MIC [2] is reported as no more than 0.006 µg/mL and the MIC (Enterobacter cloacae 963) is reported as 0.2 µg/mL (≈ 0.477 µM). It also gave an MIC [3] of no more than 0.006 µg/mL, an MIC [4] of 0.1 µg/mL (≈ 0.238 µM) and an MIC [5] of 0.39 µg/mL (≈ 0.93 µM). It also gave an MIC [6] of 0.39 µg/mL (≈ 0.93 µM), an MIC [7] of no more than 0.006 µg/mL and an MIC [8] of 0.013 µg/mL (≈ 0.031 µM). It also gave an MIC [9] of 0.013 µg/mL (≈ 0.031 µM), an MIC [10] of no more than 0.006 µg/mL and an MIC [11] of 0.025 µg/mL (≈ 0.0596 µM). It also gave an MIC [12] of 0.025 µg/mL (≈ 0.0596 µM), an MIC [13] of 0.025 µg/mL (≈ 0.0596 µM) and an MIC [14] of 0.05 µg/mL (≈ 0.119 µM). The MIC [15] was 0.025 µg/mL (≈ 0.0596 µM), the MIC [16] was 0.025 µg/mL (≈ 0.0596 µM) and the MIC [17] was 0.05 µg/mL (≈ 0.119 µM). The MIC [18] was 0.05 to 3.13 µg/mL (≈ 0.119 to 7.46 µM), the MIC50 [18] was 0.2 µg/mL (≈ 0.477 µM) and the MIC90 [18] was 3.13 µg/mL (≈ 7.46 µM). For the same molecule, the MIC50 [19] was 1.56 µg/mL (≈ 3.72 µM), the MIC90 [19] was 6.25 µg/mL (≈ 14.9 µM) and the MIC ([19]; 25 clinical strains E. faecium) was 0.1 to 25 µg/mL (≈ 0.238 to 59.6 µM). For the same molecule, the MIC90 [20] was 0.78 µg/mL (≈ 1.86 µM), the MIC [20, 23] was 0.006 to 0.78 µg/mL (≈ 0.0143 to 1.86 µM) and the MIC50 [20, 23] was 0.013 µg/mL (≈ 0.031 µM). For the same molecule, the MIC50 [21] was 0.025 µg/mL (≈ 0.0596 µM), the MIC [21, 24] was 0.006 to 0.78 µg/mL (≈ 0.0143 to 1.86 µM) and the MIC90 [21, 24] was 0.39 µg/mL (≈ 0.93 µM).
